From patent US7538241B2, “Hsp90 family protein inhibitors” (Kyowa Hakko Kogyo Co., Ltd., priority 2003, dated 2009)

Test system: human mammary cancer-derived KPL-4 cells
Assay: Cell growth inhibition test with KPL-4 cells (WST-1)
Assay type: cell-based
Conditions: KPL4, 72 hours, read-out: 50% growth inhibition concentration (GI50)
Method in brief: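 Growth inhibition from WST-1 absorbance difference (450 minus 655 nm) after 1 h, relative to untreated control as 100%, giving GI50. KPL-4 cells had 24 h pre-culture in DMEM/10% FCS before 72 h compound exposure at 37 °C under 5% CO2.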

GI50, ≤ 50 µM:
CCOc1cccc(-c2c(O)cc(O)c(C(C)=O)c2CCOC)c1 [Compound 121, 1-[2,4-Dihydroxy-5-(3-ethoxyphenyl)-6-(2-methoxyethyl)phenyl]ethanone]

Test system: human chronic myelocytic leukemia-derived K562 cells
Assay: Cell growth inhibition test with K562 cells (WST-1)
Assay type: cell-based
Conditions: 72 hours, read-out: 50% growth inhibition concentration (GI50)
Experimental: In a 96-well plate (Nunc), human chronic myelocytic leukemia-derived K562 cells were sown in an amount of 1500 cells/well, and pre-incubated in 10% FCS-containing Rosewell Park Memorial Institute's Medium (RPMI) 1640 (Nissui) (incubation medium) in a 5% carbon dioxide incubator at 37° C. for 5 hours. Next, a DMSO solution of a test compound controlled at 10 mmol/L was stepwise diluted with the incubation medium, and added to each well in a total amount of 100 μL/well, and further incubated in the 5% carbon dioxide incubator at 37° C. for 72 hours. After the incubation, WST-1-labeled mixture (Rosh Diagnostic) diluted 2-fold with the incubation medium was added thereto in an amount of 20 μL/well, and incubated in the 5% carbon dioxide incubator at 37° C. for 2 hours. Using a microplate spectrophotometer (Biorad's Model 550), the absorbance at 450 nm and 655 nm of each well was measured. The cell growth inhibition activity of the test compound was indicated by the 50% growth inhibition concentration (GI50) thereof, like in Test Example 2.

GI50, ≤ 50 µM:
CC(=O)c1c(O)cc(O)c(-c2cccc(O)c2)c1CCOCCO [Compound 310, 1-{2,4-Dihydroxy-6-[2-(2-hydroxyethoxy)ethyl]-5-(3-hydroxyphenyl)phenyl}ethanone]
CCc1c(O)cc(O)c(-c2cccc(NC(=O)c3ccccc3)c2)c1CCOCC(O)CO (stereo not drawn) [Compound 205, 4-[3-(N-benzoylamino)phenyl]-5-[2-(2,3-dihydroxypropoxy)ethyl]-6-ethylbenzene-1,3-diol]
CCc1c(O)cc(O)c(-c2ccccc2)c1CCc1ocnc1C(N)=O [Compound 222, 5-[2-(2-Ethyl-3,5-dihydroxy-6-phenylphenyl)ethyl]-1,3-oxazole-4-carboxamide]
OC[C@H]1OC(Cc2c(Cl)c(O)cc(O)c2-c2ccccc2)O[C@@H]1CO [Compound 280, 5-{[(4R,5R)-4,5-bis(hydroxymethyl)-1,3-dioxolan-2-yl]methyl}-6-chloro-4-phenylbenzene-1,3-diol]
CCc1c(O)cc(O)c(-c2ccccc2)c1CCc1ocnc1C(=O)NCC(O)CO (stereo not drawn) [Compound 226, N-(2,3-dihydroxypropyl)-5-[2-(2-ethyl-3,5-dihydroxy-6-phenylphenyl)ethyl]-1,3-oxazole-4-carboxamide]
CCc1c(O)cc(O)c(-c2cccc(OCCN3CCCC3=O)c2)c1CCOCC(O)CO (stereo not drawn) [Compound 196, 5-[2-(2,3-Dihydroxypropoxy)ethyl]-6-ethyl-4-{3-[2-(2-oxopyrrolidin-1-yl)ethoxy]phenyl}benzene-1,3-diol]
CCc1c(O)cc(O)c(-c2ccccc2)c1Cc1n[nH]c(=O)o1 [Compound 315, 5-[(2-ethyl-3,5-dihydroxy-6-phenylphenyl)methyl]-3H-1,3,4-oxadiazol-2-one]
CCc1c(O)cc(O)c(-c2ccc(F)c(Cl)c2)c1CC1O[C@H](CO)[C@@H](CO)O1 [Compound 293, 5-{[(4R,5R)-4,5-bis(hydroxymethyl)-1,3-dioxolan-2-yl]methyl}-4-(3-chloro-4-fluorophenyl)-6-ethylbenzene-1,3-diol]
CC(=O)c1c(O)cc(O)c(-c2ccccc2)c1CC1O[C@H](CO)[C@@H](CO)O1 [Compound 234, 1-(6-{[(4R,5R)-4,5-bis(hydroxymethyl)-1,3-dioxolan-2-yl]methyl}-2,4-dihydroxy-5-phenylphenyl)ethanone]
CCc1c(O)cc(O)c(-c2cccc(NS(=O)(=O)c3ccc(C)cc3)c2)c1CCOCC(O)CO (stereo not drawn) [Compound 203, 5-[2-(2,3-Dihydroxypropoxy)ethyl]-6-ethyl-4-{3-[N-(4-tolylsulfonyl)amino]phenyl}benzene-1,3-diol]
CCc1c(O)cc(O)c(-c2cccc(OC)c2)c1Cc1nn(CCO)c(=O)o1 [Compound 323, 5-{[2-Ethyl-3,5-dihydroxy-6-(3-methoxyphenyl)phenyl]methyl}-3-(2-hydroxyethyl)-3H-1,3,4-oxadiazol-2-one]
CCc1c(O)cc(O)c(-c2ccccc2)c1CCC(N)=O [Compound 212, 3-(2-Ethyl-3,5-dihydroxy-6-phenylphenyl)propanamide]
CCCNC(=O)c1cccc(-c2c(O)cc(O)c(CC)c2CC2O[C@H](CO)[C@@H](CO)O2)c1 [Compound 306, 5-{[(4R,5R)-4,5-Bis(hydroxymethyl)-1,3-dioxolan-2-yl]methyl}-6-ethyl-4-[3-(propylcarbamoyl)phenyl]benzene-1,3-diol]
CCNC(=O)Nc1cccc(-c2c(O)cc(O)c(CC)c2CCOCC(O)CO)c1 (stereo not drawn) [Compound 206, 5-[2-(2,3-Dihydroxypropoxy)ethyl]-6-ethyl-4-[3-(3-ethylureido)phenyl]benzene-1,3-diol]
CCc1c(O)cc(O)c(-c2ccc(F)c(Cl)c2)c1CCOCCO [Compound 312, 4-(3-Chloro-4-fluorophenyl)-6-ethyl-5-[2-(2-hydroxyethoxy)ethyl]benzene-1,3-diol]
CCc1c(O)cc(O)c(-c2cccc(O)c2)c1CC1O[C@H](COC)[C@@H](COC)O1 [Compound 307, 5-{[(4R,5R)-4,5-Bis(methoxymethyl)-1,3-dioxolan-2-yl]methyl}-6-ethyl-4-(3-hydroxyphenyl)benzene-1,3-diol]
CCc1c(O)cc(O)c(-c2ccccc2)c1CCC(C(=O)OC)C(=O)OC [Compound 213, Methyl 4-(2-ethyl-3,5-dihydroxy-6-phenylphenyl)-2-(methoxycarbonyl)butanoate]
CCc1c(O)cc(O)c(-c2ccccc2)c1CC(=O)N(CCO)CCCOC [Compound 322, 2-(2-Ethyl-3,5-dihydroxy-6-phenylphenyl)-N-(2-hydroxyethyl)-N-(3-methoxypropyl)acetamide]
CCc1c(O)cc(O)c(-c2cccc(O)c2)c1CC1O[C@@H](CO)[C@H](CO)O1 [Compound 281, 5-{[(4S,5S)-4,5-bis(hydroxymethyl)-1,3-dioxolan-2-yl]methyl}-6-ethyl-4-(3-hydroxyphenyl)benzene-1,3-diol]
CCc1c(O)cc(O)c(-c2cccc(OC)c2)c1CC1O[C@@H](CO)[C@H](CO)O1 [Compound 233, 5-{[(4S,5S)-4,5-Bis(hydroxymethyl)-1,3-dioxolan-2-yl]methyl}-6-ethyl-4-(3-methoxyphenyl)benzene-1,3-diol]
CCc1c(O)cc(O)c(-c2cccc(C(=O)NCCO)c2)c1CC1O[C@H](CO)[C@@H](CO)O1 [Compound 304, 5-{[(4R,5R)-4,5-Bis(hydroxymethyl)-1,3-dioxolan-2-yl]methyl}-6-ethyl-4-[3-(2-hydroxyethyl)carbamoylphenyl]benzene-1,3-diol]
CCc1c(O)cc(O)c(-c2ccccc2)c1C=CC(CO)CO [Compound 214, 6-ethyl-5-[4-hydroxy-3-(hydroxymethyl)but-1-en-1-yl]-4-phenylbenzene-1,3-diol]
CCc1c(O)cc(O)c(-c2cc(C)cc(C)c2)c1CC1O[C@@H](CO)[C@H](CO)O1 [Compound 283, 5-{[(4S,5S)-4,5-bis(hydroxymethyl)-1,3-dioxolan-2-yl]methyl}-4-(3,5-dimethylphenyl)-6-ethylbenzene-1,3-diol]
CCc1c(OC(C)=O)cc(OC(C)=O)c(-c2ccccc2)c1CCOCCOC [Compound 328, 1,5-Bis(acetyloxy)-4-ethyl-3-[2-(2-methoxyethoxy)ethyl]-2-phenylbenzene]
CCc1c(O)cc(O)c(-c2ccccc2)c1Cc1nn(CCO)c(=O)o1 [Compound 318, 5-[(2-Ethyl-3,5-dihydroxy-6-phenylphenyl)methyl]-3-(2-hydroxyethyl)-3H-1,3,4-oxadiazol-2-one]
CCc1c(O)cc(O)c(-c2ccc(F)c(F)c2)c1CC1O[C@@H](CO)[C@H](CO)O1 [Compound 299, 5-{[(4S,5S)-4,5-bis(hydroxymethyl)-1,3-dioxolan-2-yl]methyl}-4-(3,4-difluorophenyl)-6-ethylbenzene-1,3-diol]
CCc1c(O)cc(O)c(-c2cccc(NC(=O)C(C)(CO)CO)c2)c1CCOCC(O)CO (stereo not drawn) [Compound 207, 5-[2-(2,3-Dihydroxypropoxy)ethyl]-6-ethyl-4-{3-[2-hydroxy-1-(hydroxymethyl)-1-methylethylcarbonylamino]phenyl}benzene-1,3-diol]
CCc1c(O)cc(O)c(-c2ccc(F)c(C)c2)c1CC1O[C@H](CO)[C@@H](CO)O1 [Compound 291, 5-{[(4R,5R)-4,5-bis(hydroxymethyl)-1,3-dioxolan-2-yl]methyl}-6-ethyl-4-(4-fluoro-3-methylphenyl)benzene-1,3-diol]
CCc1c(O)cc(O)c(-c2ccccc2)c1CCN1C(=O)OCC1C(=O)OC (stereo not drawn) [Compound 319, Methyl 3-[2-(2-ethyl-3,5-dihydroxy-6-phenylphenyl)ethyl]-2-oxo-1,3-oxazolidine-4-carboxylate]
CCc1c(O)cc(O)c(-c2cccc(N)c2)c1CCOCC(O)CO (stereo not drawn) [Compound 197, 4-(3-Aminophenyl)-5-[2-(2,3-dihydroxypropoxy)ethyl]-6-ethylbenzene-1,3-diol]
CCc1c(O)cc(O)c(-c2ccccc2)c1CCC(O)CC(O)CO (stereo not drawn) [Compound 170, 6-Ethyl-4-phenyl-5-(3,5,6-trihydroxyhexyl)benzene-1,3-diol]
CCc1c(O)cc(O)c(-c2cccc(C(=O)NC3CC3)c2)c1CC1O[C@H](CO)[C@@H](CO)O1 [Compound 305, 5-{[(4R,5R)-4,5-Bis(hydroxymethyl)-1,3-dioxolan-2-yl]methyl}-4-[3-(2-cyclopropylcarbamoyl)phenyl]-6-ethylbenzene-1,3-diol]
